“Also recorded” adds a separate entry of the source.
Columns and labels:
BAE cells [1] = assay: BAE cell viability / cytotoxicity (propidium iodide flow cytometry); assay type: cell-based, bovine; conditions: read-out: IC50 for loss of viability
Text: (§1) Adherent cells were allowed to adhere overnight.

[2] = test system: MCF-7 cells (mammary carcinoma); assay: MCF-7 cell proliferation assay (MTT, 72 h); assay type: cell-based; conditions: MCF-7, human mammary carcinoma; read-out: IC50 for proliferation arrest
Protocol: (§2) BAE cells were from Cell Applications, San Diego, Calif. and BxPC-3, HT1080, LLC, PANC-1, MCF-7, HCT116 and K562 cells were from ATCC, Bethesda, Md. NB4 and MDCK2 cells were from Shane Supple (Kanematsu Laboratories, Royal Prince Alfred Hospital, Sydney, Australia) and P. Borst (The Netherlands Cancer Institute, Amsterdam, The Netherlands). BAE, HT1080, Panc-1, MCF-7, HCT116, MDCK2 and LLC cells were cultured in DMEM. NB4, K562 and BxPC-3 cells were cultured in RPMI medium. The cells were supplemented with 10% foetal calf serum (FBS), 2 mM L-glutamine, and 1 U·mL-1 penicillin/streptomycin. Cell culture plasticware was from Techno Plastic Products (Trasadingen, Switzerland). All other cell culture reagents were from Gibco (Gaithersburg, Md.).
as §1

[3] = test system: MDCKII cells over-expressing MRP2; conditions: MD/MRP2; 96 h; relative to IC50 of non-transfected parental cells
Protocol: (§3) Transfectants of the Madin-Darby canine kidney II (MDCKII) polarised epithelial cell line, over-expressing multidrug resistance-associated proteins (MRP) 1, 2 or 3, have been described (Evers et al., 2000; Kool et al., 1999), as have the MEF/MDR1 clone H4 over-expressing human MDR1 or BCRP (Dilda et al., 2005b). Cells were grown and maintained as adherent monolayers in DMEM containing 10% calf serum (Cosmic™, Hyclone, Tauranga, New Zealand), 100 μg·mL^−1 penicillin and 60 μg·mL^−1 streptomycin. Cytotoxicity assays were performed as described previously (Allen et al., 1999).
(§4) Mammalian cells over-expressing MRP1, 2, 3 or 6, or MDR1 or BCRP were tested for resistance to (S)-Penicillamine-arsenoxide. MRP1, MRP2 or MRP3 was over-expressed in the canine kidney epithelial MDCKII cell line, while MRP6, MDR1 or BCRP was over-expressed in the murine embryo fibroblast MEF3.8 line. Cells were exposed to the indicated concentrations of (S)-Penicillamine-arsenoxide for 96 h and the number of viable cells measured and expressed relative to the number of untreated cells. Resistance factor is calculated relative to the (S)-Penicillamine arsenoxide IC50 for proliferation arrest of non-transfected parental cells.

[4] = test system: MEF3.8 cells over-expressing MDR1; conditions: MEF/MDR1; 96 h; relative to IC50 of non-transfected parental cells
Protocol: as §3, §4

[5] = test system: organic anion transporting polypeptide (OATP); assay: OATP studies with inhibitor DIDS in BAE cells; assay type: cell-based, bovine
Protocol: 750,000 BAE cells were seeded in 6 well plates containing DMEM with 10% fetal calf serum and allowed to adhere overnight. Cells were pretreated or not with 500 μM 4,4′-diisothiocyanostilbene-2,2′-disulfonic acid (DIDS) for 30 min and then incubated with 20 μM (S)-Penicillamine arsenoxide for 2 h at 37° C. and 5% CO2. Cells were then washed twice with ice-cold PBS and lysed with 70% nitric acid. Cellular arsenic levels were determined by ICPMS. 5000 BAE cells were seeded in 96 well plates containing DMEM with 10% fetal calf serum and allowed to adhere overnight. Cells were pretreated or not with 300 μM DIDS for […] and then incubated with 1.5 μM (S)-Penicillamine arsenoxide for 24 h at 37° C. and 5% CO2. Cell viability was determined using MTT.

[6] = test system: K562 cells (chronic myelogenous leukaemia); assay: K562 cell proliferation assay (MTT, 72 h); assay type: cell-based; conditions: K562, human chronic myelogenous leukaemia; read-out: IC50 for proliferation arrest
Protocol: as §2, §1

[7] = test system: LLC cells (lung carcinoma); assay: LLC cell proliferation assay (MTT, 72 h); assay type: cell-based, human; conditions: mouse Lewis lung carcinoma, read-out: IC50 for proliferation arrest
Protocol: as §2, §1

[8] = test system: HCT1116 cells (colorectal carcinoma); assay: HCT116 cell proliferation assay (MTT, 72 h); assay type: cell-based; conditions: HCT1116, human colorectal carcinoma; read-out: IC50 for proliferation arrest
Protocol: as §2, §1

[9] = test system: BxPC-3 cells (pancreatic carcinoma); assay: BxPC-3 cell proliferation assay (MTT, 72 h); assay type: cell-based; conditions: BxPC-3, human pancreatic carcinoma; read-out: IC50 for proliferation arrest
Protocol: as §2, §1

BAE cells [10] = assay: Accumulation of arsenical in BAE cells (cytosolic arsenic by inductively coupled plasma spectrometry); assay type: cell-based, bovine; conditions: 50 μM
Protocol: BAE cells were seeded at a density of 1.5×10^6 cells in Petri dishes and allowed to adhere overnight. Cells were incubated with 50 μM (S)-Penicillamine-arsenoxide at discrete times for up to 2 h at 37° C. and then washed three times with ice-cold PBS. The washed cells were lysed in 1 mL of 70% w/w nitric acid. Petri dishes were then washed twice with 1 mL of PBS and kept at 4° C. until use. Samples were diluted 10-fold and analysed for arsenic atoms using an Elan 6100 Inductively Coupled Plasma Spectrometer (Perkin Elmer Sciex Instruments, Shelton, Conn.).

[11] = test system: NB4 cells (acute promyelocytic leukaemia); assay: NB4 cell proliferation assay (MTT, 72 h); assay type: cell-based, human
Protocol: as §2, §1

[12] = test system: PANC-1 cells (pancreatic carcinoma); assay: PANC-1 cell proliferation assay (MTT, 72 h); assay type: cell-based; conditions: PANC-1, human pancreatic carcinoma; read-out: IC50 for proliferation arrest
Protocol: as §2, §1

[13] = test system: HT1080 cells (fibrosarcoma); assay: HT1080 cell proliferation assay (MTT, 72 h); assay type: cell-based; conditions: HT1080, human fibrosarcoma; read-out: IC50 for proliferation arrest
Protocol: as §2, §1

CC(C)(SCC(=O)Nc1ccc([As](O)O)cc1)[C@@H](N)C(=O)O [(S)-Penicillamine-arsenoxide, 4-(N—(S-penicillaminylacetyl)amino)phenylarsinous acid]
IC50 (BAE cells [1]): 3.5 µM | IC50 [2]: 9 µM | Resistance Factor [3]: 4.6 | Resistance Factor [4]: 1.2 | effect of DIDS on anti-proliferative activity ([5]; 300 μM DIDS, then 1.5 μM compound 24 h): reduces its anti-proliferative activity | effect of DIDS on uptake ([5]; 500 μM DIDS 30 min, then 20 μM compound 2 h): inhibits (S)-Penicillamine arsenoxide uptake | IC50 [6]: 1.4 µM | IC50 [7]: 5 µM | IC50 [8]: 6 µM | IC50 [9]: 13 µM | initial rate of accumulation (BAE cells [10]): 69 pmol per 10^6 cells per min | IC50 ([11]; NB4, human acute promyelocytic leukaemia, read-out: IC50 for proliferation arrest): 0.7 µM | effects on APL cells compared to arsenic trioxide ([11]; NB4 cells, 72 h): equivalent to arsenic trioxide; also recorded: as good an inhibitor of APL cell proliferation as arsenic trioxide | IC50 [12]: 6.5 µM | IC50 [13]: 4 µM

Reference: patent publication US9765101B2, “Organo-arsenoxide compounds and use thereof” (NewSouth Innovations Pty Limited, priority 2006, dated 2017)
